The values below come from patent US5270325A, “P-hydroxy phenone derivatives used in the treatment of cardiac arrhythmia” (BASF Aktiengesellschaft, priority 1988, dated 1993).

The subject of one assay is arrhythmias.
Experiment: not given
The settings on record: literature: Circulation 68 (1983) 88-94; Am. Heart J. 109 (1985) 949-958; J. Clin. Pharmacol. 27 (1987) 708; cited from earlier work.
With `CC(C)NCC(O)c1ccc(NS(C)(=O)=O)cc1` (single isomer, unassigned) [D-Sotalol], the “acting against arrhythmias which are otherwise resistant to therapy” value is “acting against arrhythmias which are otherwise resistant to therapy, especially reentry arrhythmias”.

Regarding `CCCCc1oc2ccccc2c1C(=O)c1cc(I)c(OCCN(CC)CC)c(I)c1` [amiodarone], the “acting against arrhythmias which are otherwise resistant to therapy” value is given as “acting against arrhythmias which are otherwise resistant to therapy, especially reentry arrhythmias”.

The subject of the next assay is QT interval. Briefly: Class III antiarrhythmic action in guinea-pigs after intravenous administration (increase in the QT interval, ECG). Type of assay: in vivo, Pirbright white guinea-pigs. The settings on record: Cavia porcellus, anesthetized (urethane) guinea-pigs, ED 20% from linear relation between log dose and relative increase in the QT interval. As for the experimental part: The experimental animals are male and female Pirbright white guinea-pigs weighing from 300 to 500 g. They are anesthetized with 1.5 g/kg urethane i.p. The substances are administered intravenously. The ECG conduction times and the heart rate are measured from a recording from extremity lead II. The measured variables are the QT and PQ intervals and the heart rate. 4 to 6 animals are used per dose. The criterion of a class III action is an increase in the QT interval compared with the values before administration of the substance. An increase in PQ and a large decrease in the heart rate serve as exclusion criteria. The ED 20% is calculated from the linear relation between log dose (mg/kg) of the substance and the relative increase in the QT interval (in %).
Regarding `Cc1cc(C(=O)/C=C/c2ccccc2C(F)(F)F)cc(C)c1OCCN1CCCC1.O=C(O)/C=C/C(=O)O` [Example 5, 3',5'-Dimethyl-4'-[2-(1-pyrrolidinyl)ethoxy]-2-trifluoromethylchalcone fumarate], the ED (20%) was found to be 1 mg/kg.

In turn, `CC(C)NCC(O)c1ccc(NS(C)(=O)=O)cc1` (single isomer, unassigned) [D-Sotalol] displayed an ED (20%) of 3.6 mg/kg.

Molecule `Cc1ccsc1/C=C/C(=O)c1cc(C)c(OCCN2CCCC2)c(C)c1.O=C(O)/C=C/C(=O)O` [Example 4, 3,5-Dimethyl-4-[2-(1-pyrrolidinyl)ethoxy]phenyl E-2-(3-methyl-2-thienyl)ethenyl ketone fumarate] had an ED (20%) of 1.2 mg/kg.

In turn, `Cc1cc(C(=O)/C=C/c2cccn2C)cc(C)c1OCCN1CCCC1.O=C(O)/C=C/C(=O)O` [Example 2, 3,5-Dimethyl-4-[2-(1-pyrrolidinyl)ethoxy]phenyl E-2-(1-methyl-2-pyrrolyl)ethenyl ketone fumarate] came in with an ED (20%) of 1.1 mg/kg.
